Data as given in BindingDB's records for doi:10.1021/jm001111b (Louis Pasteur University, 2001).

Experiment: Displacement of [3H]clonidine from imidazoline receptor I-1 of bovine chromaffin cell membranes

Ki [nM] | SMILES
537 | CC1CC(NC(C2CC2)C2CC2)=NC1C (stereo unspecified)
170 | CCC1CCC(NC(C2CC2)C2CC2)=N1 (stereo unspecified)
646 | CC1CN=C(NC(C2CC2)C2CC2)C1 (stereo unspecified)
1580 | CC1CCC(NC(C2CC2)C2CC2)=N1 (stereo unspecified)
513 | C1CN=C(NC(C2CC2)C2CC2)C1
74 | C1COC(NC(C2CC2)C2CC2)=N1 [CHEBI:8862]
